Measured values as given in patent US20150025131A1 (priority 2013, published 2015).
≈ marks a conversion by molar mass, not a printed value.

Assays:
[1] = tested on: ROS production from mice peritoneal macrophages; test: Luminol enhanced chemiluminescence oxidative burst, mice peritoneal macrophages; assay type: cell-based; conditions: Mus musculus, Peritoneal macrophage, serum opsonized zymosan, read-out: Myeloperoxidase dependent Oxidative Burst (IC50 μg/mL) Macrophages
Procedure: (§1) Intracellular effect was determined using human peripheral whole blood phagocytes and isolated neutrophils and from mice peritoneum macrophages, where luminol-enhanced chemillumenescence assay was applied. The effect on myeloperoxidase independent ROS production was determined using lucigenin on murine macrophages RAW.267 cells.
(§2) Table 2. […] 267 cells (murine macrophages). DPI is used as standard drug. Reading presents mean±SD of three determinations.
NMRI mice of 25 to 30 gm weight were injected aseptically with 1 mL of heat inactivated fetal bovine serum (FBS) in the peritoneum cavity, using sterile 1 mL syringe and mice were kept for further 72 h. […] Cells were counted and concentration was adjusted to 1×10^6/mL for chemiluminescence assay.
(§3) Luminol enhanced chemiluminescence technique was applied to study the effect of compound on ROS from phagocytes, Using whole blood, neutrophil and macrophages Briefly, 25 μL diluted whole blood (1:50 dilution in sterile HBSS^++) or 25 μL of PMNs (1×10^6), or 25 μL of isolated macrophages (1×10^6) were incubated with 25 μL of compound in triplicates and using three different concentrations (1, 10 and 100 μg/mL) using white 96 wells plates. […] Results were monitored as relative light unit (RLU) reading, with peak and total integral values set with repeated scans at 60 seconds intervals, and 1 second points measuring time.

[2] = tested on: ROS production from human neutrophils; test: Luminol enhanced chemiluminescence oxidative burst, isolated neutrophils; assay type: cell-based; conditions: Neutrophil, serum opsonized zymosan, read-out: Myeloperoxidase dependent Oxidative Burst (IC50 μg/mL) Neutrophils
Procedure: as §1, §2
Heparinized blood was obtained by vein puncture aseptically, from healthy volunteers (25-38 years age). The buffy coat containing polymorhonuclear neutrophils (PMNs) was collected by dextran sedimentation, and cells were isolated after the LSM density gradient centrifugation. […]
as §3

TNF-α production = TNF-α production from PMA differentiated, LPS activated THP-1 cells (ELISA); assay type: cell-based, human; conditions: Homo sapiens, 4 h, read-out: inhibition of TNF-α production (IC50)
Procedure: The symbol * and δ represents the P≦0.03 and P≦0.006, respectively.
FIG. 2 depicts the effect of pentoxyfillin (PTX) on TNF-α production (pg/mL) Human monocytic leukemia THP-1 cells were differentiated and activated with 20 ng/mL of PMA and 50 ng/mL of LPS, respectively and incubated with different concentrations of PTX for 4h, the supernatant was analyzed for the level of TNF-α by ELISA. The symbol * represents P≦of 0.03.
THP-1 (human monocytic leukemia) cells were maintained in RPMI-1640 supplemented with 10% FBS, 2 mmol/L glutamine, 5.5 mmol/L glucose, 50 μmol/L mercaptoethanol, 1 mmol/L sodium pyruvate, and 10 mmol/L HEPES and incubated at 37° C. in 5% CO2. Cells were grown in […] culture flask until they attained 70% confluency. Cells were then plated in 24-well tissue culture plates at a concentration of 2.5×10^5 cells/mL. Cells were differentiated into macrophages using PMA at a final concentration of 20 ng/mL and further incubated at 37° C. in 5% CO2 environment for 24 h. […] After addition of the compound cells were then incubated for 4 h for TNF-α production and 18 h for IL-1β production at 37° C. in 5% CO2. The supernatants were harvested and analyzed for the level of TNF-α and IL-1β, by human TNF-α and IL-1β Duo set ELISA kits, and according to the manufacturer's instructions.

[3] = MTT cytotoxicity assay, MDBK; assay type: cell-based, bovine; conditions: bovine, MDBK bovine kidney cells, 48 h incubation, read-out: Cytotoxicity (IC50 μg/mL) MDBK cells
Procedure: (§4) Cell cytotoxicity assay was performed using three different cell lines NIH 3T3 (mouse embryo, fibroblast cells), CC1 (rat, epithelial, liver cell) and MDBK (bovine kidney) cells using MTT (3-[4,5-dimethylthiazole-2-yl]-2,5-diphenyl-tetrazolium bromide) colorimetric assay. Briefly 3T3 were grown in DMEM, supplemented with 10% of fetal bovine serum (FBS), and 1% penicillin-streptomycin whereas CC1 (rat epithelial liver cells) were cultured in EMEM, 2 mM Glutamine, 1% Non-Essential Amino Acids (NEAA), 20 mM HEPES, 10% Foetal Bovine Serum (FBS) and 1% penicillin-streptomycin, and MDBK cells were grown in 10% of fetal bovine serum (FBS) in 75 cm^2 flask, and incubated in 5% CO2 incubator at 37° C. until they attain 70% confluency. Cells were then harvested by centrifuging at 200 g for 5 min at 25° C., counted using heamocytometer and their concentration was adjusted to 6×10^4 cells/mL. 100 μL of Cells were then plated in 96 well plate and incubated overnight. Next day the supernatant was carefully removed and 200 μL of fresh medium was added with three different concentration of compound (1, 10, 50) μg/mL. […] The extent of MTT reduction to formazan within cells was calculated by measuring the absorbance at 540 nm; using a micro plate reader (Spectra Max plus 340, Molecular Devices, Calif., USA). […] The percent inhibition was calculated by using the following formula: […]

MDBK bovine kidney cells = test: MTT cytotoxicity assay, MDBK; assay type: cell-based
Procedure: as §4

SMILES: COc1c(O)cc2oc(-c3ccc(O)c(O)c3)c(O)c(=O)c2c1O [Patuletin, 3,5,7,3′,4′-pentahydroxy-6-methoxy flavones]
- IC50 [1]: 1.9 µg/mL
- IC50 [2]: 1.2 µg/mL
- IC50 (TNF-α production): 2.5 µg/mL (≈ 7.52 µM)
- IC50 at 48 h [3]: 12.6 ± 0.4 µg/mL (≈ 37.9 µM)
- cytotoxicity on MDBK bovine kidney cells (in words) (MDBK bovine kidney cells): no cytotoxicity
